Patent US9884832B2 (priority 2011, dated 2018)
Like-named read-outs stand apart in the source and are kept apart here.

Legend:
[1] = molecular target: AM2 S31N (serine→asparagine mutation at residue 31 in the M2 protein) (Influenza A virus, UniProt P0DOF5, S31N); format: cell-based, influenza virus A/Udorn/72
[2] = molecular target: AM2 V27A (valine→alanine mutation at residue 27 in the M2 protein) (Influenza A virus, UniProt P0DOF5, V27A); format: cell-based, influenza virus A/Udorn/72

Row | SMILES | S31N OOcyte Inhibition at 100 uM (%) ([1]; pH 5.5) | V27A OOcyte Inhibition at 100 uM (%) ([2]; pH 5.5) | S31N OOcyte Inhibition at 100 uM (%) [1] | V27A OOcyte Inhibition at 100 uM (%) [2]
1 | Nc1ncc(CNC23CC4CC(CC(C4)C2)C3)cn1 [Example 75, 5-(Adamantan-1-ylaminomethyl)-pyrimidin-2-ylamine] | B (key: (A)=31-95%; (B)=0-30%) | B (key: (A)=31-95%; (B)=0-30%) |  | 
2 | Oc1c(CNC23CC4CC(CC(C4)C2)C3)ccc2ccccc12 [Example 53a, 2-(Adamantan-1-ylaminomethyl)-naphthalen-1-ol] |  |  | A (key: (A)=31-95%; (B)=0-30%) | B (key: (A)=31-95%; (B)=0-30%)
3 | O=c1[nH]cc(CNC23CC4CC(CC(C4)C2)C3)c(=O)[nH]1 [Example 169a, 5-((adamantan-1-ylamino)methyl)pyrimidine-2,4(1H,3H)-dione] |  |  | B (key: (A)=31-95%; (B)=0-30%) | B (key: (A)=31-95%; (B)=0-30%)
4 | Clc1ccc(COc2ccc(CNC34CC5CC(CC(C5)C3)C4)cc2)cc1 [Example 16a, Adamantan-1-yl-[4-(4-chloro-benzyloxy)-benzyl]-amine] |  |  | A (key: (A)=31-95%; (B)=0-30%) | B (key: (A)=31-95%; (B)=0-30%)
5 | c1cc(CNC23CC4CC(CC(C4)C2)C3)cc(-c2ccco2)c1 [Example 30a, N-(3-(Furan-2-yl)benzyl)adamantan-1-amine] |  |  | B (key: (A)=31-95%; (B)=0-30%) | A (key: (A)=31-95%; (B)=0-30%)
6 | Oc1ccc(CNC23CC4CC(CC(C4)C2)C3)cc1O [Example 45, 4-(Adamantan-1-ylaminomethyl)-benzene-1,2-diol] | B (key: (A)=31-95%; (B)=0-30%) | A (key: (A)=31-95%; (B)=0-30%) |  | 
7 | CCSc1ccc(CNC23CC4CC(CC(C4)C2)C3)cc1 [Example 12a, N-(4-(ethylthio)benzyl)adamantan-1-amine] |  |  | A (key: (A)=31-95%; (B)=0-30%) | B (key: (A)=31-95%; (B)=0-30%)
8 | CC1(C)C2CCC(CNCc3ccc(O)cc3O)C1C2 (stereo not shown) [Example 114, 4-{[(6,6-Dimethyl-bicyclo[3.1.1]hept-2-ylmethyl)-amino]methyl}-benzene-1,3-diol] | B (key: (A)=31-95%; (B)=0-30%) | B (key: (A)=31-95%; (B)=0-30%) |  | 
9 | Fc1ccc(CNC23CC4CC(CC(C4)C2)C3)cc1 [Example 27, Adamantan-1-yl-(4-fluoro-benzyl)-amine] | B (key: (A)=31-95%; (B)=0-30%) | B (key: (A)=31-95%; (B)=0-30%) |  | 
10 | COc1cc(O)ccc1CNC12CC3CC(CC(C3)C1)C2 [Example 56, 4-(Adamantan-1-ylaminomethyl)-3-methoxy-phenol] | B (key: (A)=31-95%; (B)=0-30%) | B (key: (A)=31-95%; (B)=0-30%) |  | 
11 | Clc1c(CNC23CC4CC(CC(C4)C2)C3)nc2sccn12 [Example 87, Adamantan-1-yl-(5-chloro-imidazo[2,1-b]thiazol-6-ylmethyl)-amine] | B (key: (A)=31-95%; (B)=0-30%) | B (key: (A)=31-95%; (B)=0-30%) |  | 
12 | Cc1nc(-c2ccc(CNC34CC5CC(CC(C5)C3)C4)s2)cs1 [Example 156a, N-((5-(2-methylthiazol-4-yl)thiophen-2-yl)methyl)adamantan-1-amine] |  |  | A (key: (A)=31-95%; (B)=0-30%) | A (key: (A)=31-95%; (B)=0-30%)
13 | c1csc(-c2ccc(CNC34CC5CC(CC(C5)C3)C4)cc2)c1 [Example 44, N-(4-(Thiophen-2-yl)benzyl)adamantan-1-amine] | A (key: (A)=31-95%; (B)=0-30%) | B (key: (A)=31-95%; (B)=0-30%) |  | 
14 | c1nc2ccc(CNC34CC5CC(CC(C5)C3)C4)cc2[nH]1 [Example 94, Adamantan-1-yl-(3H-benzoimidazol-5-ylmethyl)-amine] | B (key: (A)=31-95%; (B)=0-30%) | B (key: (A)=31-95%; (B)=0-30%) |  | 
15 | Nc1ccc(CNC23CC4CC(CC(C4)C2)C3)cc1 [Example 11, Adamantan-1-yl-(4-amino-benzyl)-amine] | B (key: (A)=31-95%; (B)=0-30%) | B (key: (A)=31-95%; (B)=0-30%) |  | 
16 | Cc1nn2cc(CNC3C4CC5CC(C4)CC3C5)nc2s1 (stereo not shown) [Example 106, Adamantan-2-yl-(2-methyl-imidazo[2,1-b][1,3,4]thiadiazol-6-ylmethyl)-amine] | B (key: (A)=31-95%; (B)=0-30%) | A (key: (A)=31-95%; (B)=0-30%) |  | 
17 | c1ccc2nc(CNC34CC5CC(CC(C5)C3)C4)ccc2c1 [Example 56a, Adamantan-1-yl-quinolin-2-ylmethyl-amine] |  |  | A (key: (A)=31-95%; (B)=0-30%) | B (key: (A)=31-95%; (B)=0-30%)
18 | COc1ccc(-c2cc(CNC34CC5CC(CC(C5)C3)C4)no2)cc1 [Example 110a, N-((5-(4-methoxyphenyl)isoxazol-3-yl)methyl)adamantan-1-amine] |  |  | A (key: (A)=31-95%; (B)=0-30%) | B (key: (A)=31-95%; (B)=0-30%)
19 | Cc1ccc(-c2ccc(CNC34CC5CC(CC(C5)C3)C4)cc2)o1.Cl [Example 32a, N-(4-(5-Methylfuran-2-yl)benzyl)adamantan-1-amine hydrochloride] |  |  | A (key: (A)=31-95%; (B)=0-30%) | B (key: (A)=31-95%; (B)=0-30%)
20 | Oc1cccc(CNC23CC4CC(CC(C4)C2)C3)c1O [Example 64, 3-(Adamantan-1-ylaminomethyl)-benzene-1,2-diol] | B (key: (A)=31-95%; (B)=0-30%) | A (key: (A)=31-95%; (B)=0-30%) |  | 
21 | COc1ccsc1CNC12CC3CC(CC(C3)C1)C2 [Example 74a, Adamantan-1-yl-(3-methoxy-thiophen-2-ylmethyl)-amine] |  |  | A (key: (A)=31-95%; (B)=0-30%) | B (key: (A)=31-95%; (B)=0-30%)
22 | Oc1ccc(CNC2C3CC4CC(C3)CC2C4)c(O)c1 (stereo not shown) [Example 100, 4-(Adamantan-2-ylaminomethyl)-benzene-1,3-diol] | B (key: (A)=31-95%; (B)=0-30%) | A (key: (A)=31-95%; (B)=0-30%) |  | 
23 | c1cc(CNC23CC4CC(CC(C4)C2)C3)co1 [Example 66a, Adamantan-1-yl-furan-3-ylmethyl-amine] |  |  | B (key: (A)=31-95%; (B)=0-30%) | B (key: (A)=31-95%; (B)=0-30%)
24 | CCOc1ccc(CNC23CC4CC(CC(C4)C2)C3)cc1 [Example 1a, Adamantan-1-yl-(4-ethoxy-benzyl)-amine] |  |  | A (key: (A)=31-95%; (B)=0-30%) | B (key: (A)=31-95%; (B)=0-30%)
25 | c1cc(CNC23CC4CC(CC(C4)C2)C3)cc(-c2cccs2)c1 [Example 34a, N-(3-(thiophen-2-yl)benzyl)adamantan-1-amine] |  |  | B (key: (A)=31-95%; (B)=0-30%) | A (key: (A)=31-95%; (B)=0-30%)
26 | c1csc(-c2ccc(CNC3C4CC5CC(C4)CC3C5)s2)c1 (stereo not shown) [Example 205a, N-([2,2′-bithiophen]-5-ylmethyl)adamantan-2-amine] |  |  | A (key: (A)=31-95%; (B)=0-30%) | B (key: (A)=31-95%; (B)=0-30%)
